According to patent publication US7659284B2, “Thiazolopyridine kinase inhibitors” (Janssen Pharmaceutica NV, priority 2004, dated 2010):

Biological target: T1, EGFR (Homo sapiens, UniProt P00533)
T1 construct: started at nucleotide 2189 (corresponding to amino acid 667) and ended at the termination codon; made in house; host or cells: Sf9 insect cells (baculovirus)
Assay: EGFR Kinase Assay (GST-EGFR, 33P-ATP, Streptavidin Flashplate)
Format: biochemical
Conditions: GST-EGFR intracellular portion, 5 μM ATP
From the text: The EGFR kinase used was a fusion of Glutathione-S-Transferase (GST) and a PCR amplified intracellular portion of EGFR (NM_005228). The intracellular portion of EGFR started at nucleotide 2189 (corresponding to amino acid 667) and ended at the termination codon. The portion was PCR amplified with primers that added the lambda attB sequences to each end, recombined into an entry vector, then into a GST destination vector (as described in Gateway Technologies Manual by Invitrogen Corporation, Carlsbad, Calif.).
The destination vector was recombined in the DH10BAC strain of bacteria to produce a bacmid. The bacmid was transfected into Sf 9 cells and the supernatant containing the baculovirus was collected. The GSTEGFR protein was purified using large cultures of Sf 9 cells infected with stock virus. After an appropriate period of time, the cells were collected and lysed. The GSTEGFR was then purified from the lysate on Glutathione-Sepharose columns (as described by Amersham Biosciences, Buckinghamshire, United Kingdom).
The EGFR substrate was prepared by biotinylating polyGluTyr (128 mg) (Sigma, St. Louis, Mo.) in a 1×PBS buffer incubated together with a 12-fold molar excess of Sulfo-NHS-LC-Biotin on ice for at least 2 hrs. The free biotin was separated from the biotinylated polyGluTyr on a gel filtration column.
A mixture of a 10× kinase buffer (500 mM Tris at pH 8.0, 100 mM Magnesium Chloride and 1 mM Sodium Vanadate), DTT (1 mM final from 500 mM stock), ATP (5 μM final from 10 mM stock), biotinylated polyGluTyr (10 μg/μL stock), γ-^33P ATP (10 μCi/μL stock) and water was added to each well (90 μL/well) of a Streptavidin Flashplate (Perkin Elmer, Wellesley, Mass.).
Test compound in 100% DMSO (2 μL) was added to the appropriate wells. Diluted GSTEGFR (1:300 dilution in 50 mM Tris at pH 8.0 and 0.1% bovine serum albumin) (10 μL) was added to the wells to initiate the reactions.
The plates were incubated at 30° C. for 1 hr with shaking. The reacted contents were removed and the plates were sequentially washed three times with a 1×PBS stop buffer (300 μL without Magnesium and Calcium) and 100 mM EDTA. After the final wash, the same stop buffer (200 μL) was added to the wells. The plates were then sealed and read on the TopCount scintillation counter.
Test compounds were assayed in triplicate at 16 concentrations at half-log dilutions starting at 200 uM. A maximum and minimum signal for the assay was determined on each plate. The percent inhibition of a test compound was calculated accord to the formula
For a series of test concentrations, the IC50 was derived by graphing percent inhibition against the log of the concentrations tested for a given compound. For those compounds without an IC50, the percent inhibition results are shown at a test concentration of 2 μM.

T1 sequence (P00533 667-1210 limits assumed): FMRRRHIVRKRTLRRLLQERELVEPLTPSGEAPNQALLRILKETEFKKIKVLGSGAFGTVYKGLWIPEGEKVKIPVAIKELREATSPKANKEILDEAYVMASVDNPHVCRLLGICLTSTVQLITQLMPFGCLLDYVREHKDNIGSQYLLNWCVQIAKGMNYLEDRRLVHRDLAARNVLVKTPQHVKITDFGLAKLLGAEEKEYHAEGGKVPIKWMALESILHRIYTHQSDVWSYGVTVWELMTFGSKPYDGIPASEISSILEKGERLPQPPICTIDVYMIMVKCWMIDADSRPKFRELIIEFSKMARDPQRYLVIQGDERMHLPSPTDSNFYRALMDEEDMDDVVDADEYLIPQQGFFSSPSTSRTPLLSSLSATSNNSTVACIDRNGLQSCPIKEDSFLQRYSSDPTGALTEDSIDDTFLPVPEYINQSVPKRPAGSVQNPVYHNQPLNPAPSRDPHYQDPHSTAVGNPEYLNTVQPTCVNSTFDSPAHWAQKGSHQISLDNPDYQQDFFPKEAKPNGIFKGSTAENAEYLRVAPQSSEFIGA

Compound	IC50 [µM]
N#Cc1cnc2nc(Nc3ccc(CN4CCC(N)CC4)cc3)sc2c1Nc1ccc(F)c(Cl)c1 [Cpd 31, 2-[4-(4-amino-piperidin-1-ylmethyl)-phenylamino]-7-(3-chloro-4-fluoro-phenylamino)-thiazolo[4,5-b]pyridine-6-carbonitrile]	0.0604
CN(Cc1ccc(Nc2nc3ncc(C#N)c(Nc4ccc(F)c(Cl)c4)c3s2)cc1)C1CCOCC1 [Cpd 16, 7-(3-chloro-4-fluoro-phenylamino)-2-(4-{[methyl-(tetrahydro-pyran-4-yl)-amino]-methyl}-phenylamino)-thiazolo[4,5-b]pyridine-6-carbonitrile]	0.0764
N#Cc1cnc2nc(Nc3ccc(Cl)nc3)sc2c1Nc1ccc(F)c(Cl)c1 [Cpd 28, 7-(3-chloro-4-fluoro-phenylamino)-2-(6-chloro-pyridin-3-ylamino)-thiazolo[4,5-b]pyridine-6-carbonitrile]	0.327
CN(C)Cc1ccc(Nc2nc3ncc(C#N)c(Nc4ccc(F)c(Cl)c4)c3s2)cc1Cl [Cpd 18, 2-(3-chloro-4-dimethylaminomethyl-phenylamino)-7-(3-chloro-4-fluoro-phenylamino)-thiazolo[4,5-b]pyridine-6-carbonitrile]	0.0857
N#Cc1cnc2nc(Nc3ccc(S(=O)(=O)NCCN4CCOCC4)cc3)sc2c1Nc1ccc(F)c(Cl)c1 [Cpd 7, 4-[7-(3-chloro-4-fluoro-phenylamino)-6-cyano-thiazolo[4,5-b]pyridin-2-ylamino]-N-(2-morpholin-4-yl-ethyl)-benzenesulfonamide]	0.0285
N#Cc1cnc2nc(Nc3ccc(NCCCN4CCOCC4)nc3)sc2c1Nc1ccc(F)c(Cl)c1 [Cpd 29, 7-(3-chloro-4-fluoro-phenylamino)-2-[6-(3-morpholin-4-yl-propylamino)-pyridin-3-ylamino]-thiazolo[4,5-b]pyridine-6-carbonitrile]	0.0696
C#Cc1cccc(Nc2c(C#N)cnc3nc(NCCCN4CCOCC4)sc23)c1 [Cpd 9, 7-(3-ethynyl-phenylamino)-2-(3-morpholin-4-yl-propylamino)-thiazolo[4,5-b]pyridine-6-carbonitrile]	2.63
CN(Cc1ccc(Nc2nc3ncc(C#N)c(Nc4ccc(F)c(Cl)c4)c3s2)cc1)C[C@@H]1CCCO1 [Cpd 15, 7-(3-chloro-4-fluoro-phenylamino)-2-[(4-{methyl-[(2S)-tetrahydro-furan-2-ylmethyl]-amino}-methyl)-phenylamino]-thiazolo[4,5-b]pyridine-6-carbonitrile]	0.0761
N#Cc1cnc2nc(Nc3ccc(O)nc3)sc2c1Nc1ccc(F)c(Cl)c1 [Cpd 27, 7-(3-chloro-4-fluoro-phenylamino)-2-(6-hydroxy-pyridin-3-ylamino)-thiazolo[4,5-b]pyridine-6-carbonitrile]	0.207
CN(Cc1ccc(Nc2nc3ncc(C#N)c(Nc4ccc(F)c(Cl)c4)c3s2)cc1)C[C@H]1CCCO1 [Cpd 14, 7-(3-chloro-4-fluoro-phenylamino)-2-[(4-{methyl-[(2R)-tetrahydro-furan-2-ylmethyl]-amino}-methyl)-phenylamino]-thiazolo[4,5-b]pyridine-6-carbonitrile]	0.0293
N#Cc1cnc2nc(NCCCN3CCOCC3)sc2c1Nc1ccc(F)c(Cl)c1 [Cpd 8, 7-(3-chloro-4-fluoro-phenylamino)-2-(3-morpholin-4-yl-propylamino)-thiazolo[4,5-b]pyridine-6-carbonitrile]	2.63
C#Cc1cccc(Nc2c(C#N)cnc3nc(NCCN4CCOCC4)sc23)c1 [Cpd 13, 7-(3-ethynyl-phenylamino)-2-(2-morpholin-4-yl-ethylamino)-thiazolo[4,5-b]pyridine-6-carbonitrile]	3.28
COCCN(CCOC)S(=O)(=O)c1ccc(Nc2nc3ncc(C#N)c(Nc4ccc(F)c(Cl)c4)c3s2)cc1 [Cpd 5, 4-[7-(3-chloro-4-fluoro-phenylamino)-6-cyano-thiazolo[4,5-b]pyridin-2-ylamino]-N,N-bis-(2-methoxy-ethyl)-benzenesulfonamide]	0.0637
N#Cc1cnc2nc(NCCN3CCOCC3)sc2c1Nc1cccc(Cl)c1 [Cpd 12, 7-(3-chloro-phenylamino)-2-(2-morpholin-4-yl-ethylamino)-thiazolo[4,5-b]pyridine-6-carbonitrile]	15.8
N#Cc1cnc2nc(NCc3ccc(CN4CCOCC4)cc3)sc2c1Nc1ccc(F)c(Cl)c1 [Cpd 22, 7-(3-chloro-4-fluoro-phenylamino)-2-(4-morpholin-4-ylmethyl-benzylamino)-thiazolo[4,5-b]pyridine-6-carbonitrile]	0.853
CN(C)Cc1ccc(Nc2nc3ncc(C#N)c(Nc4ccc(F)c(Cl)c4)c3s2)cc1 [Cpd 3, 7-(3-chloro-4-fluoro-phenylamino)-2-(4-dimethylaminomethyl-phenylamino)-thiazolo[4,5-b]pyridine-6-carbonitrile]	0.0437
N#Cc1cnc2nc(Nc3ccc(NCCN)nc3)sc2c1Nc1ccc(F)c(Cl)c1 [Cpd 30, 2-[6-(2-amino-ethylamino)-pyridin-3-ylamino]-7-(3-chloro-4-fluoro-phenylamino)-thiazolo[4,5-b]pyridine-6-carbonitrile]	0.0677
N#Cc1cnc2nc(Nc3ccc(CN4CCOCC4)cc3)sc2c1Nc1ccc(Cl)cc1Cl [Cpd 34, 7-(2,4-dichloro-phenylamino)-2-(4-morpholin-4-ylmethyl-phenylamino)-thiazolo[4,5-b]pyridine-6-carbonitrile]	1.45
COc1ccc(Nc2nc3ncc(C#N)c(Nc4ccc(F)c(Cl)c4)c3s2)cn1 [Cpd 26, 7-(3-chloro-4-fluoro-phenylamino)-2-(6-methoxy-pyridin-3-ylamino)-thiazolo[4,5-b]pyridine-6-carbonitrile]	0.158
N#Cc1cnc2nc(Nc3ccc(CN4CCC[C@H]4CO)cc3)sc2c1Nc1ccc(F)c(Cl)c1 [Cpd 6, 7-(3-chloro-4-fluoro-phenylamino)-2-{4-[(2S)-2-hydroxymethyl-pyrrolidin-1-ylmethyl]-phenylamino}-thiazolo[4,5-b]pyridine-6-carbonitrile]	0.053
N#Cc1cnc2nc(Nc3ccc(CN4CCOCC4)cc3)sc2c1Nc1ccc(F)c(Cl)c1 [Cpd 2, 7-(3-chloro-4-fluoro-phenylamino)-2-(4-morpholin-4-ylmethyl-phenylamino)-thiazolo[4,5-b]pyridine-6-carbonitrile]	0.078
N#Cc1cnc2nc(Nc3ccc(CN4CCOCC4)cc3)sc2c1Nc1cccc(Cl)c1 [Cpd 19, 7-(3-chloro-phenylamino)-2-(4-morpholin-4-ylmethyl-phenylamino)-thiazolo[4,5-b]pyridine-6-carbonitrile]	0.0795
C#Cc1cccc(Nc2c(C#N)cnc3nc(Nc4ccc(CN5CCC[C@H]5CO)cc4)sc23)c1 [Cpd 11, 7-(3-ethynyl-phenylamino)-2-{4-[(2S)2-hydroxymethyl-pyrrolidin-1-ylmethyl]-phenylamino}-thiazolo[4,5-b]pyridine-6-carbonitrile]	0.0417
CCc1nccn1Cc1ccc(Nc2nc3ncc(C#N)c(Nc4ccc(F)c(Cl)c4)c3s2)cc1 [Cpd 1, 7-(3-chloro-4-fluoro-phenylamino)-2-[4-(2-ethyl-imidazol-1-ylmethyl)-phenylamino]-thiazolo[4,5-b]pyridine-6-carbonitrile]	0.0226
COCCN(CCOC)Cc1ccc(Nc2nc3ncc(C#N)c(Nc4ccc(F)c(Cl)c4)c3s2)cc1 [Cpd 4, 2-(4-{[bis-(2-methoxy-ethyl)-amino]-methyl}-phenylamino)-7-(3-chloro-4-fluoro-phenylamino)-thiazolo[4,5-b]pyridine-6-carbonitrile]	0.049
N#Cc1cnc2nc(Nc3ccc(CNC[C@H]4CCCO4)cc3)sc2c1Nc1ccc(F)c(Cl)c1 [Cpd 21, 7-(3-chloro-4-fluoro-phenylamino)-2-[4-({[(2R)-tetrahydro-furan-2-ylmethyl]-amino}-methyl)-phenylamino]-thiazolo[4,5-b]pyridine-6-carbonitrile]	0.0446
